According to the supplement of paper PMC13380429:

What was measured:
Details in all cases: 72 h
Caco-2 [1] = assay: relative viability EC50 (midpoint between 100% and the lowest measured viability); higher = less toxic
Vero E6 [2] = assay: as above
U2OS [3] = assay: as above
HepG2 [4] = assay: as above
Calu-3 [5] = assay: as above
Caco-2 [6] = assay: drug sensitivity score (DSS) for viability; higher = more toxic; extreme values may be limits of the assay
Vero E6 [7] = assay: as above
U2OS [8] = assay: as above
HepG2 [9] = assay: as above
Calu-3 [10] = assay: as above
Caco-2 [11] = assay: cell viability relative to DMSO; higher = less toxic
Vero E6 [12] = assay: as above
U2OS [13] = assay: as above
HepG2 [14] = assay: as above
Calu-3 [15] = assay: as above

Structure (SMILES) | relative viability EC50 (Caco-2 [1]) | relative viability EC50 (Vero E6 [2]) | relative viability EC50 (U2OS [3]) | relative viability EC50 (HepG2 [4]) | relative viability EC50 (Calu-3 [5]) | drug sensitivity score (Caco-2 [6]) | drug sensitivity score (Vero E6 [7]) | drug sensitivity score (U2OS [8]) | drug sensitivity score (HepG2 [9]) | drug sensitivity score (Calu-3 [10]) | cell viability (Caco-2 [11]; 1 nM) | cell viability (Caco-2 [11]; 10 nM) | cell viability (Caco-2 [11]; 100 nM) | cell viability (Caco-2 [11]; 1000 nM) | cell viability (Caco-2 [11]; 10000 nM) | cell viability (Vero E6 [12]; 1 nM) | cell viability (Vero E6 [12]; 10 nM) | cell viability (Vero E6 [12]; 100 nM) | cell viability (Vero E6 [12]; 1000 nM) | cell viability (Vero E6 [12]; 10000 nM) | cell viability (U2OS [13]; 1 nM) | cell viability (U2OS [13]; 10 nM) | cell viability (U2OS [13]; 100 nM) | cell viability (U2OS [13]; 1000 nM) | cell viability (U2OS [13]; 10000 nM) | cell viability (HepG2 [14]; 1 nM) | cell viability (HepG2 [14]; 10 nM) | cell viability (HepG2 [14]; 100 nM) | cell viability (HepG2 [14]; 1000 nM) | cell viability (HepG2 [14]; 10000 nM) | cell viability (Calu-3 [15]; 1 nM) | cell viability (Calu-3 [15]; 10 nM) | cell viability (Calu-3 [15]; 100 nM) | cell viability (Calu-3 [15]; 1000 nM) | cell viability (Calu-3 [15]; 10000 nM)
Nc1ccc(S(N)(=O)=O)cc1 [sulfanilamide] | > 10 µM | > 10 µM | > 10 µM | > 10 µM | > 10 µM | 0 | 0 | 0 | 0 | 0 | 85.8% | 59.8% | 84.2% | 81.1% | 113% | 99.8% | 94.2% | 83.1% | 105% | 117% | 98.8% | 97% | 106% | 100% | 103% | 96.8% | 104% | 95.1% | 109% | 103% | 95% | 97.2% | 106% | 90.7% | 102%
COc1ccc(-c2cc(=O)c3c(OC)c(OC)c(OC)c(OC)c3o2)cc1 [tangeritin] | > 10 µM | > 10 µM | > 10 µM | > 10 µM | > 10 µM | 0 | 0 | 0 | 0 | 0 | 95.1% | 89.6% | 99% | 103% | 91.7% | 91.8% | 98.7% | 92.4% | 98% | 97% | 98.5% | 94.3% | 98.9% | 97.4% | 89.8% | 94.2% | 101% | 95.2% | 107% | 105% | 106% | 99.6% | 103% | 100% | 92.3%
CCN(CC)C(=O)N[C@H]1C[C@@H]2c3cccc4[nH]cc(c34)C[C@H]2N(C)C1 [terguride] | > 10 µM | > 10 µM | > 10 µM | > 10 µM | > 10 µM | 0 | 0 | 0 | 0 | 0 | 88.6% | 93.3% | 108% | 97.2% | 99.5% | 105% | 106% | 104% | 99.8% | 97% | 96.4% | 95.3% | 94.5% | 99.1% | 94.7% | 104% | 105% | 95.9% | 92.9% | 102% | 106% | 97.4% | 95.2% | 105% | 115%
Cc1ccsc1C(=CCCN1CCC[C@@H](C(=O)O)C1)c1sccc1C [tiagabine] | > 10 µM | > 10 µM | > 10 µM | > 10 µM | > 10 µM | 0 | 0 | 0 | 0 | 0 | 93.5% | 97.9% | 102% | 92.3% | 106% | 98.2% | 100% | 92.4% | 104% | 106% | 101% | 94.2% | 101% | 98% | 94.2% | 96% | 103% | 97.3% | 103% | 98.6% | 117% | 103% | 99.8% | 98.1% | 100%
CCS(=O)(=O)CCn1c([N+](=O)[O-])cnc1C [tinidazole] | > 10 µM | > 10 µM | > 10 µM | > 10 µM | > 10 µM | 0 | 0 | 0 | 0 | 0 | 104% | 77.8% | 99% | 108% | 93.1% | 100% | 102% | 91.7% | 97.6% | 106% | 96.3% | 94.8% | 97.1% | 92% | 98.3% | 94.1% | 109% | 85.5% | 118% | 86.8% | 95.2% | 96.6% | 98.4% | 98.2% | 99.9%
COc1ccc(N2CCOCC2)c2sc(NC(=O)N3CCC(C)(O)CC3)nc12 [tozadenant] | > 10 µM | > 10 µM | > 10 µM | > 10 µM | > 10 µM | 0 | 0 | 0 | 0 | 0 | 90.8% | 95.5% | 110% | 96.1% | 98% | 94.5% | 106% | 90.6% | 94.3% | 101% | 103% | 95.7% | 102% | 98.9% | 103% | 85.8% | 99.4% | 109% | 99.7% | 98.2% | 87.7% | 94.1% | 87.3% | 101% | 97.4%
O=C(O)/C=C/CO [trans-4-hydroxycrotonic-acid] | > 10 µM | > 10 µM | > 10 µM | > 10 µM | > 10 µM | 0 | 0 | 0 | 0 | 0 | 96.2% | 93.5% | 97.6% | 103% | 99.8% | 97% | 102% | 94.8% | 101% | 106% | 98.3% | 99.7% | 102% | 98.2% | 98.9% | 94.7% | 92% | 98% | 113% | 102% | 109% | 95.3% | 102% | 97.1% | 100%
